This is an account of results in patent publication US10150728B2, “Alkylene derivatives” (Shionogi & Co., Ltd., priority 2013, dated 2018).

The test has as its target recombinant human ACC2 (Homo sapiens (Human), UniProt O00763). Put plainly: Measurement of inhibitory activity on human ACC2 (MALDI-TOF MS, acetyl CoA to malonyl CoA conversion). It counts as biochemical. Conditions: Tables 155-159. Put shortly:
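His-tagged human ACC2 (residues 27–2458) from baculovirus-infected Sf-9 cells was preincubated 1 h in pH 7.4 HEPES-KOH buffer with MgCl2, 6-10 mM potassium citrate, glutathione and BSA. Substrate solution held 1 mM ATP, 0.8 mM acetyl CoA and 25-50 mM bicarbonate. After 1–3 h at room temperature, malonyl CoA/(malonyl+acetyl CoA) was read by negative-mode MALDI-TOF MS; citrate, bicarbonate and time varied by enzyme lot.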

Sequence of recombinant human ACC2 (O00763 27-2458): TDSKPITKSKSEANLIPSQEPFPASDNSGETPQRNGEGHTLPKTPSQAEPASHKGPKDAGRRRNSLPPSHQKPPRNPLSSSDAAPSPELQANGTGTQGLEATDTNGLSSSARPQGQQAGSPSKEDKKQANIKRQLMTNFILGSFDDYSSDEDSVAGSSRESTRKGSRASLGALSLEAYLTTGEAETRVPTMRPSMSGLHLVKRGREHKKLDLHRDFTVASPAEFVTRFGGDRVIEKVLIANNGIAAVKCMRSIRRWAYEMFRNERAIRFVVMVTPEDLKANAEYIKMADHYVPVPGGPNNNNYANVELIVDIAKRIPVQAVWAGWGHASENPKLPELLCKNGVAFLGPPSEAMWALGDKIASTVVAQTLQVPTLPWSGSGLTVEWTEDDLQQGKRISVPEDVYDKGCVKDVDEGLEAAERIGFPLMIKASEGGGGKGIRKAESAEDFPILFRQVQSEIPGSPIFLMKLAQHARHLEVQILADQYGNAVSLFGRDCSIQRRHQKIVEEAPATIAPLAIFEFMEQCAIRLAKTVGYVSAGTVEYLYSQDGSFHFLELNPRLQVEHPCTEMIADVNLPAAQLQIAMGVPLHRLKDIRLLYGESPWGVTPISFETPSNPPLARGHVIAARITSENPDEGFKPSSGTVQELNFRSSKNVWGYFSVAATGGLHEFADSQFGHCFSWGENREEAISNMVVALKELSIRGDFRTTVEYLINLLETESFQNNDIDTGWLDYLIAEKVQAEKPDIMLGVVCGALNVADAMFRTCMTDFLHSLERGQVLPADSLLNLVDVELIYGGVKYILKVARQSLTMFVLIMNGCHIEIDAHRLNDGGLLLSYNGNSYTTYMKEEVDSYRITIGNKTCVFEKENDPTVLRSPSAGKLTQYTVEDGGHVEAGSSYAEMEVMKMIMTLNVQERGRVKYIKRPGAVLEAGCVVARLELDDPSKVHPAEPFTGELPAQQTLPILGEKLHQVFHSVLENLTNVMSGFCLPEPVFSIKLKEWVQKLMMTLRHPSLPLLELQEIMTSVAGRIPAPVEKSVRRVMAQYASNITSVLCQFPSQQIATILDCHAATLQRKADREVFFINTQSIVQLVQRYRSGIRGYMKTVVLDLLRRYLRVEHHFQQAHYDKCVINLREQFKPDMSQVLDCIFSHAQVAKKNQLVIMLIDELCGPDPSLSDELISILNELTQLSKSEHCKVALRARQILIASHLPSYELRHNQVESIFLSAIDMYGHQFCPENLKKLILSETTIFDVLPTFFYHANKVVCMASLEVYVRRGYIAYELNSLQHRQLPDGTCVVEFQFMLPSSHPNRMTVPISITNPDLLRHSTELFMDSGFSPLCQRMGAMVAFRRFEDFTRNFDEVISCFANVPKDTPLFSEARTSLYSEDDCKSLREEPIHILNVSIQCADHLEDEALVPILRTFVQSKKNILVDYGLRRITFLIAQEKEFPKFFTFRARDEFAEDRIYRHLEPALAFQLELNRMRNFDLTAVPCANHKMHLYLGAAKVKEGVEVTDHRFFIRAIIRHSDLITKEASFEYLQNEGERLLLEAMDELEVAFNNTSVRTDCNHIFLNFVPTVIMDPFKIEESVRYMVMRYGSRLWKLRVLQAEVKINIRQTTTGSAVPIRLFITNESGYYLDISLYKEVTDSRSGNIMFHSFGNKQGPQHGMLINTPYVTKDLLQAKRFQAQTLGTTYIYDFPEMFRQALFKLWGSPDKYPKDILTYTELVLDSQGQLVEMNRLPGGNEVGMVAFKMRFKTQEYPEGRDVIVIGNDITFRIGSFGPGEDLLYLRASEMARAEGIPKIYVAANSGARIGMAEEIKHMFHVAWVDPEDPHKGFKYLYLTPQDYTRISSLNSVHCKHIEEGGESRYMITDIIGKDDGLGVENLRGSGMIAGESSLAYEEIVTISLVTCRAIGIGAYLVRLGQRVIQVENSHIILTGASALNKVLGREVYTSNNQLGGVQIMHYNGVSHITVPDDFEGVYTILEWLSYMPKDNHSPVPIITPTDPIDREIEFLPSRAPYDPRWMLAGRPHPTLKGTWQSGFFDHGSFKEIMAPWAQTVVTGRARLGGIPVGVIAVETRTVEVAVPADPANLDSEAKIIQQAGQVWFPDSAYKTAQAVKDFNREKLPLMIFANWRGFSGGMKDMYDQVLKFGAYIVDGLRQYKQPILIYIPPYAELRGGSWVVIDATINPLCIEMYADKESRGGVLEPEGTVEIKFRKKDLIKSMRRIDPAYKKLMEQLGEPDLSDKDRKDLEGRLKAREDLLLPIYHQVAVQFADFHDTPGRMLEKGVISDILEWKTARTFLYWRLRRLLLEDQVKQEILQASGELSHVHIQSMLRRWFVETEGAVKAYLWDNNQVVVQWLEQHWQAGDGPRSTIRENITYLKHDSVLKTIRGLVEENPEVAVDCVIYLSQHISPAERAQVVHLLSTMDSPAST

In the case of `CC(=O)N[C@@H](C)CO[C@H]1C[C@H](COc2ccc3nc(N4CCC(F)(F)CC4)sc3n2)C1` [Compound I-227], the IC50 (in general, the point on the concentration scale where inhibition reaches its midpoint) turned out to be 36 nM.
Next, `CC(=O)N[C@@H](C)CO[C@H]1C[C@H](COc2ccc3nc(N4CCC(F)(F)C4)sc3n2)C1` [Compound I-228]: 27 nM.
As to `CC(=O)N[C@@H](C)CO[C@H]1C[C@H](COc2ccc3nc(N4CCOCC4)sc3n2)C1` [Compound I-229], the IC50 worked out at 113 nM.
The figure for `CCN(C)c1nc2ccc(OC[C@H]3C[C@H](OC[C@H](C)NC(C)=O)C3)nc2s1` [Compound I-230] is 54 nM; for `CC(=O)N[C@@H](C)CO[C@H]1C[C@H](COc2ccc3nc(N(C)C)sc3n2)C1` [Compound I-231] it is 183 nM; for `CCOc1nc2ccc(O[C@H]3CC[C@H](OC[C@H](CC)NC(C)=O)CC3)c(F)c2s1` [Compound I-232] it is 21 nM.
Consider `CCOc1nc2ccc(OC[C@H]3C[C@H](OC[C@H](CC)NC(C)=O)C3)c(F)c2s1` [Compound I-233], for which the IC50 was 84 nM.
Next, `CC(=O)N[C@@H](C)CO[C@H]1CC[C@H](Oc2ncc3nc(N4CCC4)sc3c2F)CC1` [Compound I-234]: 8 nM; `CC(=O)N[C@@H](C)CO[C@H]1CC[C@H](Oc2ncc3nc(N4CC(F)C4)sc3c2F)CC1` [Compound I-235]: 22 nM.
In the case of `CC(=O)N[C@@H](C)CO[C@H]1CC[C@H](Oc2ccc3nc(N4CCCC(F)(F)C4)sc3c2F)CC1` [Compound I-236], the IC50 turned out to be 102 nM.
Next, `CC(=O)N[C@@H](C)CO[C@H]1CC[C@H](Oc2ccc3nc(N4CCC4c4ccccc4)sc3c2F)CC1` (some centres unmarked) [Compound I-237]: 891 nM; `CC(=O)N[C@@H](C)CO[C@H]1CC[C@H](Oc2ncc3nc(OC4CC4)sc3c2F)CC1` [Compound I-238]: 4 nM.
On to `CC(=O)N[C@@H](C)CO[C@H]1CC[C@H](Oc2ncc3nc(OCC(F)F)sc3c2F)CC1` [Compound I-239], for which the IC50 amounted to 8 nM.
On to `CC(=O)N[C@@H](C)CO[C@H]1CC[C@H](Oc2ncc3nc(OC(C)C)sc3c2F)CC1` [Compound I-240], for which the IC50 was determined as 7 nM.
Next, `CC(=O)N[C@@H](C)CO[C@H]1CC[C@H](Oc2ncc3nc(N4CC(F)(F)C4)sc3c2F)CC1` [Compound I-241]: 173 nM; `CC(=O)N[C@@H](C)CO[C@H]1C[C@H](COc2ccc3nc(OC4CCCC4)sc3n2)C1` [Compound I-242]: 7 nM.
Next, `CC(=O)N[C@@H](C)CO[C@H]1C[C@H](COc2ccc3nc(OC4CCOCC4)sc3n2)C1` [Compound I-243]: 28 nM; `CC(=O)N[C@@H](C)CO[C@H]1C[C@H](COc2ccc3nc(OC4CCCCC4)sc3n2)C1` [Compound I-244]: 7 nM.
Next, `CC(=O)N[C@@H](C)CO[C@H]1C[C@H](COc2ccc3nc(OC4CCC4)sc3n2)C1` [Compound I-245]: 4 nM.
Consider `CC(=O)N[C@@H](C)CO[C@H]1C[C@H](COc2ccc3nc(O[C@H]4CCOC4)sc3n2)C1` [Compound I-246], for which the half-maximal inhibitory concentration (IC50) was determined as 47 nM.
As for `CC(=O)N[C@@H](C)CO[C@H]1C[C@H](COc2ccc3nc(O[C@@H]4CCOC4)sc3n2)C1` [Compound I-247], the IC50 amounted to 17 nM.
Next, `CC(=O)N[C@@H](C)CO[C@H]1C[C@H](COc2ccc3nc(OC4CCSCC4)sc3n2)C1` [Compound I-248]: 9 nM; `CC(=O)N[C@@H](C)CO[C@H]1C[C@H](COc2ccc3nc(OC4CCSC4)sc3n2)C1` (some centres unmarked) [Compound I-249]: 8 nM; `COc1nc2ccc(OC[C@H]3C[C@H](OC[C@H](C)NC(C)=O)C3)nc2s1` [Compound I-250]: 31 nM.
Next, `CC(=O)N[C@@H](C)CO[C@H]1C[C@@H](COc2ccc3nc(N4CC(F)(F)C4)sc3n2)C1` [Compound I-251]: 22 nM; `CC(=O)N[C@@H](C)CO[C@H]1CC[C@H](Oc2ncc3nc(OC4CC(F)(F)C4)sc3c2F)CC1` [Compound I-252]: 8 nM.
